Assay results from patent US4746349A, “Method and compositions for suppressing the nitrification of ammonium in plant growth medium” (American Cyanamid Company, priority 1986, dated 1988).
Several values for one entry are separate records, joined by “and”; a condition that tells them apart may be missing. Equal entries are not always repeated. Structures can show the parent of a compound that is named as a salt.

Legend:
Nitrobacter spp. = assay: Nitrite nitrogen in ammonium amended soil incubated at 25° C.; settings: soil 25° C., 200 ppm N
Method: Determination of nitrite nitrogen and nitrate nitrogen in soil prepared in Example 1 above, which is amended with 200 ppm of nitrogen as aqueous ammonium sulfate, […], is determined using the nitrite and nitrate analysis of the American Organization of Analytical Chemists (AOAC pp. 653-655).

Urease = Urease activity of urea amended soil, 38° C., 24 hrs; assay type: biochemical
Method: Urease activity: Five grams (5 g) oven-dry soil is treated with 5 ml of aqueous urea solution (1000 ug/g soil), with or without the test compound, and incubated in 65 ml screw-capped glass bottles at 38° C. for 24 hrs. Three replicates of each treatment are established. Phenylphosphorodiamide (PPD) is used as a urease inhibitor for comparison with Maduramicin monoammonium salt. Urea remaining is determined after extracting the soil for 60 minutes (with shaking) with 50 ml of 2M KCl containing 0.5 ug/ml of phenylmercuric acetate and filtering the soil suspension. Urea in the extract is determined colorimetrically (Douglas & Bremner, 1970). The percentage inhibition is calculated from (A-B)/(C-B) X 100-% inhibition; where A=the amount of urea found after incubation with the compound, B=the amount of urea found in the non-treated soil, and C=the amount of urea added.

Nitrosomonos = assay: Nitrification of ammonium amended field soil incubated at 38° C. (ammonium recovery, nitrate); settings: soil 38° C.; for Ammonium Recovery, reported as nitrogen / Nitrate, reported as nitrogen: 0.50 ppm, 200 ppm N
Method: Determination of Nitrification Inhibition of Soil amended with 200 ppm of nitrogen as ammonium sulfate and 0.5 ppm of Nitrapyrin or 0.5 ppm of Maduramicin, monoammonium salt.
Soil samples prepared as described in Example 1 above are incubated at 38° C. for 20 weeks. Samples are taken at intervals during the 20 week period, extracted with 2M KCl (10:1 v/w), and assayed for ammonium nitrite and nitrate by standard steam distillation methods.

corn (Pioneer 3352) = assay: Field evaluation: yield of corn, sandy loam plots; assay type: in vivo; settings: for AVERAGE YIELD 4-REPLICATES: sandy loam
Description: Field Evaluation: Field evaluations are based on the N content of corn leaf tissue and grain yield utilizing two soil types. Replicate (4X) field plots are established at two different locations, one having (I) silt loam soil and one (II) with sandy loam soil. These soils had been previously cropped to non-fertilized corn to reduce the level of residual N. Maduramicin monoammonium salt is applied (0.25, 0.125, 0.07 ppm) with NH3 (84 or 168 kg N/ha) through a "downstream" by an injection system into silt loam plots. Nitrapyrin (0.25 ppm=0.56 kg a.i./ha), nitrogen checks, benzyl alcohol (1.16L/ha) (BA) and a O nitrogen check are included for comparison. Individual replicate plot sizes are 3.04M×22.8M (4, 76-cm corn rows×22.8M long) Anhydrous ammonia are injected on 76-cm centers.
Plots are then planted with corn the day following treatment. Dekalb T2000 is planted 10 May on silt loam plots and Pioneer 3352 is planted 11 May in sandy loam plots.
Corn ear leaf tissues collected at silking on silt loam plots or 60 days post silking (on silt loam and sandy loam plots) are collected from each plot and assayed for total N (AOAC procedures). Grain yields are determined by harvesting the two center rows×15.2 m of each plot.

CO[C@@H]1[C@@H](OC)[C@H](C)[C@@](O)(CC(=O)O)O[C@H]1[C@H](C)[C@H]1O[C@@]2(CC[C@@](C)([C@H]3CC[C@@](C)([C@@H]4O[C@@H]([C@H]5O[C@](C)(O)[C@H](C)C[C@@H]5C)C[C@@H]4O[C@@H]4C[C@H](OC)[C@@H](OC)[C@H](C)O4)O3)O2)C[C@H](O)[C@H]1C [Maduramicin monoammonium salt, Maduramicin]
Concentration of nitrite nitrogen (Nitrobacter spp.; 0.10 ppm, week 0): 6 ppm | Concentration of nitrite nitrogen (Nitrobacter spp.; 0.10 ppm, week 1): 17 ppm | Concentration of nitrite nitrogen (Nitrobacter spp.; 0.10 ppm, week 2): 2 ppm | Concentration of nitrite nitrogen (Nitrobacter spp.; 0.10 ppm, week 4): 3 ppm | Concentration of nitrite nitrogen (Nitrobacter spp.; 0.10 ppm, week 7): 12 ppm | Concentration of nitrite nitrogen (Nitrobacter spp.; 0.10 ppm, week 9): 49 ppm | Concentration of nitrite nitrogen (Nitrobacter spp.; 0.10 ppm, week 12): 9 ppm | Concentration of nitrite nitrogen (Nitrobacter spp.; 0.10 ppm, week 16): 14 ppm | Concentration of nitrite nitrogen (Nitrobacter spp.; 0.10 ppm, week 20): 56 ppm | Concentration of nitrite nitrogen (Nitrobacter spp.; 0.25 ppm, week 0): 7 ppm | Concentration of nitrite nitrogen (Nitrobacter spp.; 0.25 ppm, week 1): 2 ppm | Concentration of nitrite nitrogen (Nitrobacter spp.; 0.25 ppm, week 2): 7 ppm | Concentration of nitrite nitrogen (Nitrobacter spp.; 0.25 ppm, week 4): 0 ppm | Concentration of nitrite nitrogen (Nitrobacter spp.; 0.25 ppm, week 7): -5 ppm | Concentration of nitrite nitrogen (Nitrobacter spp.; 0.25 ppm, week 9): 12 ppm | Concentration of nitrite nitrogen (Nitrobacter spp.; 0.25 ppm, week 12): 0 ppm | Concentration of nitrite nitrogen (Nitrobacter spp.; 0.25 ppm, week 16): -2 ppm | Concentration of nitrite nitrogen (Nitrobacter spp.; 0.25 ppm, week 20): 33 ppm | Concentration of nitrite nitrogen (Nitrobacter spp.; 0.50 ppm, week 0): 8 ppm | Concentration of nitrite nitrogen (Nitrobacter spp.; 0.50 ppm, week 1): 10 ppm | Concentration of nitrite nitrogen (Nitrobacter spp.; 0.50 ppm, week 2): 4 ppm | Concentration of nitrite nitrogen (Nitrobacter spp.; 0.50 ppm, week 4): 4 ppm | Concentration of nitrite nitrogen (Nitrobacter spp.; 0.50 ppm, week 7): -8 ppm | Concentration of nitrite nitrogen (Nitrobacter spp.; 0.50 ppm, week 9): -4 ppm | Concentration of nitrite nitrogen (Nitrobacter spp.; 0.50 ppm, week 12): 4 ppm | Concentration of nitrite nitrogen (Nitrobacter spp.; 0.50 ppm, week 16): -13 ppm | Concentration of nitrite nitrogen (Nitrobacter spp.; 0.50 ppm, week 20): 14 ppm | % INHIBITION (urease) (Urease; (A-B)/(C-B) X 100, urea 1000 ug/g soil): 16% | AVERAGE amount of urea remaining (Urease; average of 3 replicates, urea 1000 ug/g soil): 483 µg/g | AMOUNT REMAINING (urea) (Urease; single replicates, urea 1000 ug/g soil): 492 µg/g and 477 µg/g | Activity against Nitrosomonos, in words (Nitrosomonos; 0.5 ppm): good activity | Nitrification inhibition compared with nitrapyrin, in words (Nitrosomonos; 0.5 ppm, 20 weeks): slightly better than that obtained with nitrapyrin | Ammonium Recovery, reported as nitrogen (Nitrosomonos; week 0): 193 ppm | Nitrate, reported as nitrogen (Nitrosomonos; week 0): 18 ppm | Ammonium Recovery, reported as nitrogen (Nitrosomonos; week 1): 178 ppm | Nitrate, reported as nitrogen (Nitrosomonos; week 1): 20 ppm | Ammonium Recovery, reported as nitrogen (Nitrosomonos; week 2): 193 ppm | Nitrate, reported as nitrogen (Nitrosomonos; week 2): 17 ppm | Ammonium Recovery, reported as nitrogen (Nitrosomonos; week 4): 199 ppm | Nitrate, reported as nitrogen (Nitrosomonos; week 4): 9 ppm | Ammonium Recovery, reported as nitrogen (Nitrosomonos; week 7): 208 ppm | Nitrate, reported as nitrogen (Nitrosomonos; week 7): 15 ppm | Ammonium Recovery, reported as nitrogen (Nitrosomonos; week 9): 168 ppm | Nitrate, reported as nitrogen (Nitrosomonos; week 9): 52 ppm | Ammonium Recovery, reported as nitrogen (Nitrosomonos; week 12): 154 ppm | Nitrate, reported as nitrogen (Nitrosomonos; week 12): 76 ppm | Ammonium Recovery, reported as nitrogen (Nitrosomonos; week 16): 129 ppm | Nitrate, reported as nitrogen (Nitrosomonos; week 16): 112 ppm | Ammonium Recovery, reported as nitrogen (Nitrosomonos; week 20): 95 ppm | Nitrate, reported as nitrogen (Nitrosomonos; week 20): 111 ppm | Yield at the sandy loam location, in words (corn (Pioneer 3352); 0.56 kg a.i./hectare, both rates of NH3 and the lower rate of urea): significantly higher | AVERAGE YIELD 4-REPLICATES (corn (Pioneer 3352); N 84 kg/ha as NH3, chemical 0.11 kg/ha): 155.7 HECTOLITERS/HECTARE | AVERAGE YIELD 4-REPLICATES (corn (Pioneer 3352); N 84 kg/ha as NH3, chemical 0.28 kg/ha): 159.2 HECTOLITERS/HECTARE | AVERAGE YIELD 4-REPLICATES (corn (Pioneer 3352); N 84 kg/ha as NH3, chemical 0.56 kg/ha): 165.3 HECTOLITERS/HECTARE | AVERAGE YIELD 4-REPLICATES (corn (Pioneer 3352); N 168 kg/ha as NH3, chemical 0.11 kg/ha): 163.6 HECTOLITERS/HECTARE | AVERAGE YIELD 4-REPLICATES (corn (Pioneer 3352); N 168 kg/ha as NH3, chemical 0.28 kg/ha): 174.9 HECTOLITERS/HECTARE | AVERAGE YIELD 4-REPLICATES (corn (Pioneer 3352); N 168 kg/ha as NH3, chemical 0.56 kg/ha): 176.6 HECTOLITERS/HECTARE
